Results as given in ChEMBL document CHEMBL1201862, “PubChem BioAssay data set” (2004).
The source made the active and inactive calls.

Assays:
[1] = target: Melanin-concentrating hormone receptor 1 (Homo sapiens, UniProt Q99705); assay: Fluorescence-based counterscreen for antagonists of the G-protein coupled receptor 7 (GPR7): cell-based high throughput dose response assay to identify antagonists of the melanin-concentrating hormone receptor 1 (MCHR1).; assay type: functional
[2] = target: Neuropeptides B/W receptor type 1 (Homo sapiens, UniProt P48145); assay: Fluorescence-based dose response cell-based high throughput screening assay to identify antagonists of the G-protein coupled receptor 7 (GPR7). [Related pubchem assays: 1952 (Screening assay (GPR7 antagonists).), 1880 (Summary AID.)]; assay type: functional
Chain of Neuropeptides B/W receptor type 1 (P48145 whole entry): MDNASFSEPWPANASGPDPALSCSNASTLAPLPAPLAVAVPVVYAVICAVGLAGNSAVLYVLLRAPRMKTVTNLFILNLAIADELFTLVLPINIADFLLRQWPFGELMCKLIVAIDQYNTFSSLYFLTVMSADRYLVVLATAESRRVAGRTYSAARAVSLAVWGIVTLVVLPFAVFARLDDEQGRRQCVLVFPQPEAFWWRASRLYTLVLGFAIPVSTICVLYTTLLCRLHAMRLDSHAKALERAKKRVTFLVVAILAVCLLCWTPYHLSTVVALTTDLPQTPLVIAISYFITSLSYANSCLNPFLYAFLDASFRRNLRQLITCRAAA

[3] = target: Lysosomal acid glucosylceramidase (Homo sapiens, UniProt P04062); assay: Dose response cell-based high throughput screening assay to identify enhancers of beta-glucosidase activity. [Related pubchem assays: 784 ]; assay type: functional
Chain of Lysosomal acid glucosylceramidase (P04062 whole entry): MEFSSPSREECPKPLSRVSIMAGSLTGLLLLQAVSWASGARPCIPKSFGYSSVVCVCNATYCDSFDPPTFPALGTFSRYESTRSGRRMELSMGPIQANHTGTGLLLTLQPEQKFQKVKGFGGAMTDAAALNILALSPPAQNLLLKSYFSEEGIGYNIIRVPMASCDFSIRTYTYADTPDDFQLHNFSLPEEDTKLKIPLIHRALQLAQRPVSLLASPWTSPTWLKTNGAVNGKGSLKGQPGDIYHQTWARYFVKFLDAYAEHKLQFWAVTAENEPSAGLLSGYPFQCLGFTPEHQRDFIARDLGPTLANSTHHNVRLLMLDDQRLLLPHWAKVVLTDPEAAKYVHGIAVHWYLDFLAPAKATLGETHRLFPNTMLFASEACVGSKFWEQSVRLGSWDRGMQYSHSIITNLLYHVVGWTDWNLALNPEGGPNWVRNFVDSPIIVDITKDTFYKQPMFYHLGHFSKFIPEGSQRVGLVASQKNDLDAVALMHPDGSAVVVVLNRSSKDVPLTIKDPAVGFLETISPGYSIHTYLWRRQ

Protein RecA = target: T1, Protein RecA (Mycobacterium tuberculosis, UniProt P9WHJ3); assay: Fluorescence Cell-Free Homogeneous Dose Retest to Identify Inhibitors of RecA-Intein Splicing Activity. [Related pubchem assays (depositor defined):AID2097, AID2223, AID489010, AID492950]; assay type: functional
T1 sequence (P9WHJ3 whole entry): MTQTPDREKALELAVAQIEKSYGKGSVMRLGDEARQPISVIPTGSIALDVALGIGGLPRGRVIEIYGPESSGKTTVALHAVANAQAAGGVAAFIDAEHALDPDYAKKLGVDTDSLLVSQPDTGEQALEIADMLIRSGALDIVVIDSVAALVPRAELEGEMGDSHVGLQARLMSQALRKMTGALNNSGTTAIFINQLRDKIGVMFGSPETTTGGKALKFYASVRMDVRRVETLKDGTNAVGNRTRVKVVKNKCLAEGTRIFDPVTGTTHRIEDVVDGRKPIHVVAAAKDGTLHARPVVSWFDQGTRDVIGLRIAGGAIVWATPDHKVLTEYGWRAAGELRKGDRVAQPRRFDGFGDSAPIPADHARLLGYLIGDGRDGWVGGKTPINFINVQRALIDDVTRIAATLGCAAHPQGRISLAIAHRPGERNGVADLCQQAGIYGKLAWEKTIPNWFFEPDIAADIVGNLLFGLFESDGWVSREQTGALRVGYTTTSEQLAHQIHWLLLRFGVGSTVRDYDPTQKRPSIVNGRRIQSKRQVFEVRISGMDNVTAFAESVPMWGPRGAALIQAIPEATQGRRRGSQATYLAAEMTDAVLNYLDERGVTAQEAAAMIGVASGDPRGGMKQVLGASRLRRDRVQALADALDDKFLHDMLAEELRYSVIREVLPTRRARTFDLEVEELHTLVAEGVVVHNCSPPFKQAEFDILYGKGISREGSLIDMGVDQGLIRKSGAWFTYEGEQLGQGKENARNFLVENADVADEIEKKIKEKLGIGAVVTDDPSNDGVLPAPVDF

[4] = target: T2, Replicative DNA helicase DnaB (Mycobacterium tuberculosis, UniProt P9WMR3); assay: DnaB intein splicing inhibitors, dose response, biochemical, cell-free fluorescence (AID 449749); assay type: functional
T2 sequence (P9WMR3 whole entry): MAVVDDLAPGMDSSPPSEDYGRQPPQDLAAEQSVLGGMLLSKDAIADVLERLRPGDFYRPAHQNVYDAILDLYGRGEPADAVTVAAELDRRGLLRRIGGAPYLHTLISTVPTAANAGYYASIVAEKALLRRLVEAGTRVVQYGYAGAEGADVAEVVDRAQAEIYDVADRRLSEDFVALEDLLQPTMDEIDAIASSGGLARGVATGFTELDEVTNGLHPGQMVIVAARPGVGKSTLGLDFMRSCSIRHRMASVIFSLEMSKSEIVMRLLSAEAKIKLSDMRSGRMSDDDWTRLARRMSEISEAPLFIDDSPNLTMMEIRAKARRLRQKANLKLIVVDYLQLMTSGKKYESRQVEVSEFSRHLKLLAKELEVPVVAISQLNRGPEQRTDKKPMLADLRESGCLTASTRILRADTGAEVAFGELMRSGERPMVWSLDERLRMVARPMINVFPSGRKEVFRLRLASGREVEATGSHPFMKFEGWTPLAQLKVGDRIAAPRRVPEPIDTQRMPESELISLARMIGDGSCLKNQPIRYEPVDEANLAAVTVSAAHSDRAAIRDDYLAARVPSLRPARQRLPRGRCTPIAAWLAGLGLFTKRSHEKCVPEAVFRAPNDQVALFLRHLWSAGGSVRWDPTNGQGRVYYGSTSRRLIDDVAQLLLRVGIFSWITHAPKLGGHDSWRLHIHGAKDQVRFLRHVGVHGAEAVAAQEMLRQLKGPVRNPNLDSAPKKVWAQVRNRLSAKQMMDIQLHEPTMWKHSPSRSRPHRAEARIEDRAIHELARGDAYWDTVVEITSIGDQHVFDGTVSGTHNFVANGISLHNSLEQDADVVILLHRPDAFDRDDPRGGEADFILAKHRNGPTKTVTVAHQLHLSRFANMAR

[5] = target: T3, Mannose-6-phosphate isomerase (Homo sapiens, UniProt P34949); assay: MPI inhibition at elevated mannose 6-phosphate – biochemical, fluorescence intensity, high mannose 6-phosphate, primary screen (AID 1220)
T3 sequence (P34949 whole entry): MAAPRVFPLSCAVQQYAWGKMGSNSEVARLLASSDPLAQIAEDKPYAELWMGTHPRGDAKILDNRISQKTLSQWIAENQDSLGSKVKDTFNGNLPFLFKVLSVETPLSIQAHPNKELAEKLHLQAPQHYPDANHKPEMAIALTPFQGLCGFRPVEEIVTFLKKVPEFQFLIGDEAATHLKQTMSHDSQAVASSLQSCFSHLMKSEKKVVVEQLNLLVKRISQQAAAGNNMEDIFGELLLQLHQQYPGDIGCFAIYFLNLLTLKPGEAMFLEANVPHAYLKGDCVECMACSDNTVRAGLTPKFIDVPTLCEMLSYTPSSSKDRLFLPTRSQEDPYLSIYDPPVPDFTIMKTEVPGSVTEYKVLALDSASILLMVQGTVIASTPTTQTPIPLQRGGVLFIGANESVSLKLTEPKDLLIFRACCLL

[6] = target: T3, Mannose-6-phosphate isomerase; assay: MPI enzyme activity inhibition – biochemical, fluorescence intensity, coupled assay, primary screen (AID 1209)
[7] = THP-1 cell cytotoxicity, dose response, cytotoxicity control for non-replicating M. tuberculosis project (AID 489025); assay type: functional
Aspartyl aminopeptidase = target: T4, Aspartyl aminopeptidase (Plasmodium falciparum 3D7, UniProt Q8I2J3)
T4 sequence (Q8I2J3 whole entry): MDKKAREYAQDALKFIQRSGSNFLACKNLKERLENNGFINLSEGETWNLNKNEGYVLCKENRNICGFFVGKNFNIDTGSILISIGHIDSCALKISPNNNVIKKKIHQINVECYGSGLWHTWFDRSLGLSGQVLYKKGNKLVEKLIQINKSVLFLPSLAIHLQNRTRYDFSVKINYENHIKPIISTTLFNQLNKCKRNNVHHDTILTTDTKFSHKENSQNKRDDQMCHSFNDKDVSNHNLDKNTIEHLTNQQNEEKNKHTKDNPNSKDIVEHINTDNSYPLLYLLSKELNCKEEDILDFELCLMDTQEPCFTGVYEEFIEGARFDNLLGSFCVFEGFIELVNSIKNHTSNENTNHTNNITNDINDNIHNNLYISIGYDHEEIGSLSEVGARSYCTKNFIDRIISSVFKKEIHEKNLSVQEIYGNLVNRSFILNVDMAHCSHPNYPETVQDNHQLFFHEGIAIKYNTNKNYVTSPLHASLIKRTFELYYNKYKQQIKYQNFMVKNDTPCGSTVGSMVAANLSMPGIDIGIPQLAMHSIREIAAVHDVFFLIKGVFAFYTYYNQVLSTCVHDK

Procathepsin L = Procathepsin L (Homo sapiens, UniProt P07711)
Chain of Procathepsin L (P07711 whole entry): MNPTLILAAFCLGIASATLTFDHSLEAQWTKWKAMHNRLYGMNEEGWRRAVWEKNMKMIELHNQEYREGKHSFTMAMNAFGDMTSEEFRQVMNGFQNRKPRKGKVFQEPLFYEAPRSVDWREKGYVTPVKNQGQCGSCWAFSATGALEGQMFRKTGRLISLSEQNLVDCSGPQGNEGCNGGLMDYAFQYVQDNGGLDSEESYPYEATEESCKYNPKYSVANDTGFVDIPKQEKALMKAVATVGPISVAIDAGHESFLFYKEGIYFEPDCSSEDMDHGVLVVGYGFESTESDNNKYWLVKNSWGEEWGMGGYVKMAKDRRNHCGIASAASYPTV

cells [8] = assay: cells
[9] = microbe, parasite or virus in culture; assay type: functional; conditions: Mycobacterium tuberculosis
[10] = viability of uninfected HEp-2 cells – cell-based, HTS, cytotoxicity control for RSV inhibitor project, dose response (AID 2410); assay type: functional; conditions: human respiratory syncytial virus
[11] = target: 5-hydroxytryptamine receptor 1E (Homo sapiens, UniProt P28566); assay: Counterscreen assay for S1P3 antagonists: Dose response cell-based high throughput screening assay to identify antagonists of the 5-Hydroxytryptamine Receptor Subtype 1E (5HT1E). [Related pubchem assays: 1429, 485 ]; assay type: functional
Chain of 5-hydroxytryptamine receptor 1E (P28566 whole entry): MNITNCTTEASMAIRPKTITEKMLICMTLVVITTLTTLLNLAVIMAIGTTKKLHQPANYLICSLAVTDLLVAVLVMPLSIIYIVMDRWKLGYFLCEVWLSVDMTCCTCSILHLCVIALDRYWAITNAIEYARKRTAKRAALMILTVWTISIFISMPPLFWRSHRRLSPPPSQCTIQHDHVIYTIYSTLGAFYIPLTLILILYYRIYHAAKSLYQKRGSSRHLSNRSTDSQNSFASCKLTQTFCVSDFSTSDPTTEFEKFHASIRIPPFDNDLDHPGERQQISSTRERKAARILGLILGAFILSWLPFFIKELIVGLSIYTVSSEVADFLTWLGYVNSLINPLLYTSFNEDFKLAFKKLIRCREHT

[12] = target: Sphingosine 1-phosphate receptor 3 (Homo sapiens, UniProt Q99500); assay: Dose response cell-based high throughput screening assay for antagonists of the Sphingosine 1-Phosphate Receptor 3 (S1P3). [Related pubchem assays: 1429, 485 ]; assay type: functional
Chain of Sphingosine 1-phosphate receptor 3 (Q99500 whole entry): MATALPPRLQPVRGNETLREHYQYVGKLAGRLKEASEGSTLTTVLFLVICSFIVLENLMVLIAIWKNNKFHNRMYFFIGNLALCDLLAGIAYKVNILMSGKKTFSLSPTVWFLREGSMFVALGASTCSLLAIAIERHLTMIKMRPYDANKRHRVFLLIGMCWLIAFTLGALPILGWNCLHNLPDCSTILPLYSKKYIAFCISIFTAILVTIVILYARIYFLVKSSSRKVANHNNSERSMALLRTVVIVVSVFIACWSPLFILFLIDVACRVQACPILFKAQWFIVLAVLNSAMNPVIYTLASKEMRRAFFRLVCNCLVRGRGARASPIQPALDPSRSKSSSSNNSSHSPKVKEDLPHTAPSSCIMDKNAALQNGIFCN

HEK293 = assay: Fluorescence-based counterscreen for potentiators or agonists of NPY-Y2: cell-based high-throughput dose response assay to identify inhibitors of cyclic nucleotide gated ion channel (CNGC) activity. In this assay, the parental HEK293 cell line transfected with a cyclic-nucleotide gated ion channel (CNGC)-based cAMP sensor is used to measure inhibition of isoproterenol-induced CNGC activity by test compound.; assay type: functional; conditions: Homo sapiens;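 note: stimulus is 1 µM isoproterenol at EC100 plus PDE inhibitor Ro 20-1724 at 25 µM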
[13] = target: Neuropeptide Y receptor type 2 (Homo sapiens, UniProt P49146); assay: Fluorescence-based cell-based high-throughput dose response assay for agonists of NPY-Y2. [Related pubchem assays: 1703 (Screening assay (CNGC inhibitors).), 1359 (Screening assay (NPY-Y2 potentiators or agonists).), 1304 (Screening assay (NPY-Y1 potentiators or agonists).), 1710 (Screening assay (NPY-Y2 agonists).), 1791 (Summary AID.)]; assay type: functional
Chain of Neuropeptide Y receptor type 2 (P49146 whole entry): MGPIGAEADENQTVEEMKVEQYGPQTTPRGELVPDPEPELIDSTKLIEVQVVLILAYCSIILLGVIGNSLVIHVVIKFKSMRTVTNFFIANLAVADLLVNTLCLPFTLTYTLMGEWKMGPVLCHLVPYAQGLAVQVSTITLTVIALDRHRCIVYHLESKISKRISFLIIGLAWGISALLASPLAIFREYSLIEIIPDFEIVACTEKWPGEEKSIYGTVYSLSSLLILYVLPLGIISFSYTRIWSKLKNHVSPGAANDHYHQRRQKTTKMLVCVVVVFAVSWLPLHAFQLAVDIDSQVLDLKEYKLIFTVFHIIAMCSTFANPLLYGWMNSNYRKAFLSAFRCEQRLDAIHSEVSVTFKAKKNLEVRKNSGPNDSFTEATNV

[14] = target: Neuropeptide Y receptor type 1 (Homo sapiens, UniProt P25929); assay: Fluorescence-based counterscreen for agonists of NPY-Y2: cell-based high-throughput dose response assay for agonists of NPY-Y1.; assay type: functional
Chain of Neuropeptide Y receptor type 1 (P25929 whole entry): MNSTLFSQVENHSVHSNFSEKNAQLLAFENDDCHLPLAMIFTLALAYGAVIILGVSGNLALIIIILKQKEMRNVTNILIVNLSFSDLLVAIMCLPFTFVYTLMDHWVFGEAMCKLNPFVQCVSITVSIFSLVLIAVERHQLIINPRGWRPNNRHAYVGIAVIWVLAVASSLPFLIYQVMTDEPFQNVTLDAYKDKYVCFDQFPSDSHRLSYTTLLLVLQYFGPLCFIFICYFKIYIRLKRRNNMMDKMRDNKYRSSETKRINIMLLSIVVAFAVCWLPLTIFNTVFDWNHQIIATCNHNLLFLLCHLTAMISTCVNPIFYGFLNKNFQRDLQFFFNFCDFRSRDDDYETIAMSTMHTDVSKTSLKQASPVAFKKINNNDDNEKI

[15] = antiviral protection against BTV-induced cell death – arbovirus, BSR cells, confirmation (AID 1250); assay type: functional;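 note: protection from viral cytopathic effect measured as cell viability by ATP luminescence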
[16] = target: T5, Heat shock factor protein 1 (Mus musculus, UniProt P38532); assay: decrease of HSF1-responsive luciferase luminescence – cell-based, NIH3T3, dose retest, confirmation (AID 2382); assay type: functional;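 note: NIH3T3 fibroblasts with HSF1-driven luciferase reporter stressed by proteasome inhibitor MG132; luminescence from HSF1-driven luciferase expression after 8 hours of MG132 stress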
T5 sequence (P38532 whole entry): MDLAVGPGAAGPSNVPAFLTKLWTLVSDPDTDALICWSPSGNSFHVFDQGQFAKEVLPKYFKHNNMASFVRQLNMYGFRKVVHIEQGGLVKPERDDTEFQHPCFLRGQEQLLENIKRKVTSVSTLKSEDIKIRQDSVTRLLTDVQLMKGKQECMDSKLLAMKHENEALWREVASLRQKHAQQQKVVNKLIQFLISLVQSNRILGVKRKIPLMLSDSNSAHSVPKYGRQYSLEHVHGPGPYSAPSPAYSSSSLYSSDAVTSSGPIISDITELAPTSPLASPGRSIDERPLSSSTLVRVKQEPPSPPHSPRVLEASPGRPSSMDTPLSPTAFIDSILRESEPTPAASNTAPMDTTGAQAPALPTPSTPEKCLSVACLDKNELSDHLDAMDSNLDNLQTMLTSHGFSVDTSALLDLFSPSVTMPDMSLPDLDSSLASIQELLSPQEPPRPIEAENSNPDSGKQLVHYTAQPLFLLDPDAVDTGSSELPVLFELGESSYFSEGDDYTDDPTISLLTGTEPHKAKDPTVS

cells [17] = assay type: functional
[18] = target: Disintegrin and metalloproteinase domain-containing protein 17 (Homo sapiens, UniProt P78536); assay: inhibition of ADAM17 substrate cleavage – biochemical, quenched FRET substrate, counter-screen for ADAM10 exosite inhibitor project, dose response (AID 743253)
Chain of Disintegrin and metalloproteinase domain-containing protein 17 (P78536 whole entry, the tested form may be a part): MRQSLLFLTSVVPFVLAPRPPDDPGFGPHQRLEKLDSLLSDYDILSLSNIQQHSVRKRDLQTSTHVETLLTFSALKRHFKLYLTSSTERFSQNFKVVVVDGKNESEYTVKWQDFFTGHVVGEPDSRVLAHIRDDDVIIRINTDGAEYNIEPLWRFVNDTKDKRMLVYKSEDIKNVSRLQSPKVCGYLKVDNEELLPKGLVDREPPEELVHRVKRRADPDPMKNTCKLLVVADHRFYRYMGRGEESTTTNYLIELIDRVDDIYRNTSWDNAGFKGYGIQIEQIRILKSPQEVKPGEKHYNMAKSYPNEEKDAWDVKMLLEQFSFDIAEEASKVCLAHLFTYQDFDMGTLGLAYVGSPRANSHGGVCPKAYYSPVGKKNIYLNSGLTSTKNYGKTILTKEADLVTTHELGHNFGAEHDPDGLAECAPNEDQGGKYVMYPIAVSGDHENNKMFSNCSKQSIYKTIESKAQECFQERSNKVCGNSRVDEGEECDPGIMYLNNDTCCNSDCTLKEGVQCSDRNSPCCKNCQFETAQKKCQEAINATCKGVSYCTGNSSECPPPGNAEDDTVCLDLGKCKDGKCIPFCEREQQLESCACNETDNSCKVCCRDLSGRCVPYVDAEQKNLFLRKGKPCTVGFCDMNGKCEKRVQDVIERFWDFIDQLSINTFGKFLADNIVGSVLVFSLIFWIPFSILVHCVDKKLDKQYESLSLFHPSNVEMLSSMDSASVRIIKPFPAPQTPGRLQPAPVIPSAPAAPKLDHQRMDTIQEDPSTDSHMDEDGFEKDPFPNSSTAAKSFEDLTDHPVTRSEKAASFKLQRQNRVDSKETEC

[19] = potency of ADAM10 substrate cleavage blockers – biochemical, QFRET, dose response (AID 743254);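 note: ADAM10 enzyme with the DM2 quenched FRET peptide as substrate; EDANS fluorescence gain as the protease cuts the substrate; inhibitor potency against ADAM10 proteolytic activity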
[20] = A High Throughput Confirmatory Assay used to Identify Novel Compounds that Inhibit Mycobacterium Tuberculosis in the absence of Glycerol.; assay type: functional

Chain of Melanin-concentrating hormone receptor 1 (Q99705 whole entry): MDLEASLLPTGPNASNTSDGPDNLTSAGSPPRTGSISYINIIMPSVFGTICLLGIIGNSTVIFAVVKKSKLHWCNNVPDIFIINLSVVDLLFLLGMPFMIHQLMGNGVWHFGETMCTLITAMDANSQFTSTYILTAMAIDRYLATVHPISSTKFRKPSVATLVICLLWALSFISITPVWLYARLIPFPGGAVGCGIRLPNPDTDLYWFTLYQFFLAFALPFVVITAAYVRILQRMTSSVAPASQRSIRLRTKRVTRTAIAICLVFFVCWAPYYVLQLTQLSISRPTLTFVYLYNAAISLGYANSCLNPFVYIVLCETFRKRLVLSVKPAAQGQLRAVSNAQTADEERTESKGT

For `CCOC(=O)c1c[nH]nc1N=C(S)Nc1ccc(OC)cc1`, the IC50 [1] was > 14.6 µM (not active) and the IC50 [2] was > 43.8 µM (not active).
For `COC(=O)c1cn(-c2ccccc2)nc1-c1cccnc1`, the EC50 [3] was > 50 µM (not active).
With `O=Cc1ccnc(-c2ccc(OC(=O)c3ccco3)cc2)n1` the EC50 (Protein RecA) was 16.8 µM (active), the AC50 [4] was 5.71 µM (active) and the IC50 [5] was 6.56 µM (active). The IC50 [6] was 7.4 µM (active) and the CC50 [7] was > 40 µM (active).
In the case of `Cc1cccc(N=C(S)Nn2cnnc2)c1C`, the IC50 (Aspartyl aminopeptidase) is reported as 1.9 µM (active) and the IC50 (Procathepsin L) is reported as > 59.6 µM (not active).
In the case of `COc1ccc(C(C[N+](=O)[O-])c2c(-c3ccccc3)cc3ccccn23)c(OC)c1` (centres undefined), the IC50 (cells [8]) is reported as 36.3 µM (active), the CC50 [9] is reported as 20.3 µM (active) and the CC50 [10] is reported as > 50 µM (active).
In the case of `C=CCN1CCN(C(c2ccc(Cl)cc2)c2nnnn2CCc2ccc(OC)c(OC)c2)CC1` (centres undefined), the IC50 [11] is reported as > 50 µM (not active) and the IC50 [12] is reported as > 50 µM (not active).
For `COc1ccc(COC(=O)c2ccc3c(=O)n4c(nc3c2)CCC4)cc1F`, the EC50 (HEK293) was > 35.4 µM (not active), the EC50 [13] was > 35.4 µM (not active) and the EC50 [14] was > 35.4 µM (not active).
With `COc1ccc2ccccc2c1/C=N/N1C(=O)CSC1=S` the IC50 [15] was 21.1 µM (active) and the EC50 [16] was > 195 µM (not active).
In the case of `Cc1cccc(OCC(=O)NNC(=O)c2cc3ccccc3oc2=O)c1`, the IC50 (cells [17]) is reported as 19.4 µM (active), the IC50 [18] is reported as > 69.5 µM (inactive) and the IC50 [19] is reported as > 69.5 µM (inactive). The IC50 [20] was > 100 µM (active).
